Measurements reported in US7754272B2, “Local drug delivery” (Biocompatibles IK Limited, priority 1999, dated 2010).
In brackets after ≈: the same amount, converted by molar mass.

Experiments:
[1] = cited from earlier work
[2] = Ex vivo human saphenous vein model, angiopeptin loaded stents
Method: More extensive work was conducted on angiopeptin loaded stents, to mimic the in vivo environment. The further examples use an ex vivo human saphenous vein model (as described by Armstrong, J. et al 1998. A purfused organ culture model to investigate drug release from coronary stents, Northern General Hospital, Sheffield (in press). The stents (produced as in Reference Example 1 below) were loaded using aqueous solutions of angiopeptin labeled with ^125I by the chloramine T method, into which the stent was dipped for half an hour at 37 C. The loaded stents were then allowed to air dry for one hour. Stents were in inserted into the vein, expanded by balloon catheter, washed in 10 ml culture medium for 10 s then placed in the purpose-built organ culture chamber bathed in 30 ml culture medium. The chamber was then connected to a circuit and 100 ml culture medium (HEPES-buffered RPMI 1640 culture medium (LIFE) supplemented with penicillin ([…]) streptomycin (100 units/ml) and glutamine (2 mM)) at 70 ml/min, then removed after 1 hour or 24 hours. The stent was subsequently examined to determine the proportion of angiopeptin which has eluted, whilst the vessel immediately surrounding the stent was investigated to determine the proportion of eluted drug found in the vessel. The culture medium was also analysed as was the explanted stent for radio activity.

[3] = In vivo porcine coronary artery model, angiopeptin loaded stents
Method: Further work was conducted to investigate the ability of the angiopeptin loaded stents to deliver angiopeptin tissue in an in vivo, in a porcine coronary artery model. […] The levels of angiopeptin remaining in the arterial wall immediately surrounding the stent was determined as well as the level recovered in blood and urine.

[4] = Aspirin loading and release, pre-coated stents; assay type: physicochemical; conditions: for aspirin loaded: 15 mm stent, one hour, room temperature
From the text: Aspirin has anti platelet activity, which may be useful delivered locally from a stent. […] The solutions were used to load 15 mm stents having coatings produced according to Reference Example 1 (interior wall coating thickness around 350 nanometers, exterior wall coating thickness around 1400 nanometers). The stents were immersed in the aspirin solutions at room temperature for a period of one hour. The stent was removed from the solution, excess solution removed by gentle dabbing with absorbent tissue. Aspirin loading levels were determined by extracting the aspirin into 3 ml ethanol.

[5] = Dexamethasone phosphate and dexamethasone loading and elution, pre-coated stents; conditions: for loading per stent: 20 C., 30 minutes
[6] = Etoposide/polymer premix coated stents, loading and release; assay type: physicochemical
Method: In this example, rather than precoating the polymer according to reference Example 1, followed by loading of drug, a premix of drug and crosslinkable polymer is formed and coated onto a stent. The crosslinkable polymer is identical to that used in Reference Example 1, 0.932 g polymer being dissolved into a 1:1 ethanol:water (by volume) mixture (50 ml). […] The coated stents were cured overnight at a temperature in the range 50 to 70 C.
The amount of drug loaded into the stents was determined by elution into an ethanol:water 50:50 (volume) mixture. […] The amount of etoposide eluted into ethanol:water is in this range.
The release rate, from the results, for the stent coated with a polymer crosslinked in the presence of drug indicate that the release of drug may not be slowed down as compared to the alternative system, where precoated stents are contacted with a solution of drug.

[7] = Roxithromycin loading and release, pre-coated stents; assay type: physicochemical
Method: Stents coated with polymer according to Reference Example 1 (15 mm) were loaded with roxithromycin from 5 g/l and 10 g/l solutions in ethanol or in ethanol:water 50:50 mixture. The level of loading of drug onto the stent was determined by elution from the stent into ethanol. […] The average loading for the 5 g/l solution was 58 μg per stent, whilst the 10 g/l solutions lead to loadings of around 70 μg for both solvent systems.
Stents loaded from the 10 g/l ethanolic solutions were subsequently contacted with phosphate buffered saline under gentle agitation and the release rate determined. […] The test was continued up to 48 hours, after which time 5 to 10% of roxithromycin remains in the coating.

[8] = Taxol loading of cross-linked polymer discs; assay type: physicochemical
Method: Polymers of the same compositions as used in example 8 are tested for taxol (paclitaxel) loading. Twenty discs were cut out of each membrane of polymer, placed on pieces of PTFE in petri dishes and dried in an oven at 60° C. for an hour. When cool the discs were placed into a solution of taxol and allowed to swell in a water bath at 37° C. for half an hour. The taxol solution was decanted off, the discs labelled and placed on the PTFE and allowed to air dry. The discs were then tested for determining total loadings.

[9] = Drug loading of HEMA-PC:HEMA:MMA:MBA crosslinked membrane; assay type: physicochemical; conditions: HEMA-PC:HEMA:MMA:MBA copolymer swollen in aqueous drug solution, room temperature, over night
From the text: The polymers including MBA were polymerised in situ to form crosslinked membranes. […] The crosslinked polymers were used to form “infinite slabs” type membranes, to simulate the coating on a stent. […] The loaded levels were established to be the following: […]

[10] = Vitamin B12 loading of MBA-crosslinked HEMA-PC:LM polymers; assay type: physicochemical
Method: Polymers based on HEMA-PC:LM 1:2 with varying degrees of MBA crosslinker were tested to determine the effect of crosslinker on release of vitamin B12. The polymers were also tested for their water content when swollen to equilibrium in water at 37° C. The loading levels of vitamin B12 are recorded in table 2 below.
Also recorded in table 2 are similar results for MBA crosslinked copolymers based upon 1:1 copolymers of HEMA-PC and LM.

## CO[C@H]1C[C@@H]2CC[C@@H](C)[C@@](O)(O2)C(=O)C(=O)N2CCCC[C@H]2C(=O)O[C@H]([C@H](C)C[C@@H]2CC[C@@H](O)[C@H](OC)C2)CC(=O)[C@H](C)/C=C(\C)[C@@H](O)[C@@H](OC)C(=O)[C@H](C)C[C@H](C)/C=C/C=C/C=C/1C [Rapamycin]
[1]
  solubility in water: 5 µg/mL (≈ 5.47 µM)

## CC(C)[C@@H]1NC(=O)[C@H](CCCCN)NC(=O)[C@@H](Cc2c[nH]c3ccccc23)NC(=O)[C@H](Cc2ccc(O)cc2)NC(=O)[C@@H](NC(=O)[C@H](N)Cc2ccc3ccccc3c2)CSSC[C@@H](C(=O)N[C@H](C(N)=O)[C@@H](C)O)NC1=O [angiopeptin]
[2]; after 1 hour
  share of angiopeptin eluted from stent: 93%
  share of eluted drug in the surrounding vessel: 13.9%
[2]; after 24 hours
  share of angiopeptin eluted from stent: 97%
  share of eluted drug remaining in the vessel: 7.4%
[3]; 1 to 28 days
  share of detected angiopeptin located in tissue other than the heart: less than 1%
[3]; after 5 min
  angiopeptin in blood: 0.08 µg/mL
[3]; after 1 hour
  angiopeptin in urine: 0.29 µg/mL
  share of angiopeptin remaining on the stent: 9%
[3]; after 24 hours
  angiopeptin in blood: around 0.01 μg/ml
  share of angiopeptin remaining on the stent: 4%
[3]; after 7 days
  share of angiopeptin remaining on the stent: 1.5%
[3]; after 28 days
  angiopeptin in urine: 0.01 µg/mL
[3]; after one hour
  angiopeptin in blood compared with 5 min: about the same
[3]; arterial wall surrounding the stent, after 24 hours
  level of angiopeptin in tissue: around 400 pg/ml
[3]; at 7 to 28 days
  angiopeptin in blood: No angiopeptin could be found
[3]; at 1 hour
  share of released angiopeptin localised in the left anterior descending coronary artery: 84%
[3]; at 7 days
  level of angiopeptin in tissue: around 360 pg/ml
[3]; at 28 days
  level of angiopeptin in tissue: around 200 pg/ml

## CC(=O)Oc1ccccc1C(=O)O [aspirin, Aspirin]
[4]; 10 g/l in ethanol
  aspirin loaded: around 10 μg
[4]; 40 g/l in ethanol
  aspirin loaded: around 40 μg
[4]; into phosphate buffered saline, after about 1 hour
  share of drug eluted: around 90%
[1]
  solubility in water: only partially soluble in water

## C[C@@H]1C[C@H]2[C@@H]3CCC4=CC(=O)C=C[C@]4(C)[C@@]3(F)[C@@H](O)C[C@]2(C)[C@@]1(O)C(=O)COP(=O)(O)O [dexamethasone phosphate, Dexamethasone phosphate]
[5]; 1.0 g/l in water
  loading per stent: 9 μg per stent
[5]; 2.0 g/l in water
  loading per stent: 14 µg
[5]; 5.0 g/l in water
  loading per stent: 20 µg
[5]; elution test
  time by which effectively all the drug is released: ≤ 1 h

## C[C@@H]1C[C@H]2[C@@H]3CCC4=CC(=O)C=C[C@]4(C)[C@@]3(F)[C@@H](O)C[C@]2(C)[C@@]1(O)C(=O)CO [dexamethasone, Dexamethasone]
[1]
  solubility in water: less water soluble than dexamethasone phosphate

## COc1cc([C@@H]2c3cc4c(cc3[C@@H](O[C@@H]3O[C@@H]5CO[C@@H](C)O[C@H]5[C@H](O)[C@H]3O)[C@H]3COC(=O)[C@H]23)OCO4)cc(OC)c1O [etoposide]
[6]; into 5 ml phosphate buffered saline
  time at which release plateaued: around 5 minutes
[6]; premix coated stent, eluted into ethanol:water 50:50
  average etoposide loading: around 12 μg per stent
[1]
  solubility in water: only slightly soluble in water

## CC[C@H]1OC(=O)[C@H](C)[C@@H](O[C@H]2C[C@@](C)(OC)[C@@H](O)[C@H](C)O2)[C@H](C)[C@@H](O[C@@H]2O[C@H](C)C[C@H](N(C)C)[C@H]2O)[C@](C)(O)C[C@@H](C)/C(=N\OCOCCOC)[C@H](C)[C@@H](O)[C@]1(C)O [roxithromycin, Roxithromycin]
[7]; 15 mm stent, 5 g/l solution
  average loading: 58 μg per stent
[7]; 15 mm stent, 10 g/l solutions, ethanol and ethanol:water 50:50
  loading: around 70 μg
[7]; PBS, gentle agitation, after 24 hours, loaded from 10 g/l ethanolic solution
  share of compound released: around half
[1]
  solubility in water: substantially insoluble in water

## CC(=O)O[C@H]1C(=O)[C@@]2(C)[C@H]([C@H](OC(=O)c3ccccc3)[C@]3(O)C[C@H](OC(=O)[C@H](O)[C@@H](NC(=O)c4ccccc4)c4ccccc4)C(C)=C1C3(C)C)[C@]1(OC(C)=O)CO[C@@H]1C[C@@H]2O [taxol, paclitaxel]
[8]; Series 1, 1st polymer (Table 4 HEMA-PC:LM:Hpm:TMSPM 13:39:15:5)
  Total Loading (μg per disc): 35.2 μg per disc
[8]; Series 1, 2nd polymer (Table 4 53:39:15:5)
  Total Loading (μg per disc): 80 μg per disc
[8]; Series 1, 3rd polymer (Table 4 13:55:15:5)
  Total Loading (μg per disc): 15 μg per disc
[8]; Series 1, 4th polymer (Table 4 33:55:15:5)
  Total Loading (μg per disc): 18.1 μg per disc
[8]; Series 2, 1st polymer (Table 4 13:39:15:9)
  Total Loading (μg per disc): 51.7 μg per disc
[8]; Series 2, 2nd polymer (Table 4 33:39:15:9)
  Total Loading (μg per disc): 57 μg per disc
[8]; Series 2, 3rd polymer (Table 4 13:55:15:9)
  Total Loading (μg per disc): 18.6 μg per disc
[8]; Series 2, 4th polymer (Table 4 33:55:15:9)
  Total Loading (μg per disc): 10 μg per disc
[8]; Series 3, 1st polymer (Table 4 13:39:35:5)
  Total Loading (μg per disc): 55.2 μg per disc
[8]; Series 3, 2nd polymer (Table 4 33:39:35:5)
  Total Loading (μg per disc): 11.2 μg per disc
[8]; Series 3, 3rd polymer (Table 4 13:55:35:5)
  Total Loading (μg per disc): 5.4 μg per disc
[8]; Series 3, 4th polymer (Table 4 33:55:35:5)
  Total Loading (μg per disc): 25.3 μg per disc
[8]; Series 4, 1st polymer (Table 4 13:39:35:9)
  Total Loading (μg per disc): 23.8 μg per disc
[8]; Series 4, 2nd polymer (Table 4 33:39:35:9)
  Total Loading (μg per disc): 60.5 μg per disc
[8]; Series 4, 3rd polymer (Table 4 13:55:35:9)
  Total Loading (μg per disc): 24.3 μg per disc
[8]; Series 4, 4th polymer (Table 4 33:55:35:9)
  Total Loading (μg per disc): 64 μg per disc

## rhodamine
[9]
  Loading (mg/g polymer): 85 mg/g polymer

## vitamin B12
[10]; HEMA-PC:LM 1:1, crosslinker 0.28 mole %
  Vitamin B12 Load (mg/g polymer): 26.13 mg/g polymer
[10]; HEMA-PC:LM 1:1, crosslinker 0.5 mole %
  Vitamin B12 Load (mg/g polymer): 19.83 mg/g polymer
[10]; HEMA-PC:LM 1:1, crosslinker 1 mole %
  Vitamin B12 Load (mg/g polymer): 11.89 mg/g polymer
[10]; HEMA-PC:LM 1:1, crosslinker 2 mole %
  Vitamin B12 Load (mg/g polymer): 8.44 mg/g polymer
[10]; HEMA-PC:LM 1:1, crosslinker 5 mole %
  Vitamin B12 Load (mg/g polymer): 4.94 mg/g polymer
[10]; HEMA-PC:LM 1:2, crosslinker 0.28 mole %
  Vitamin B12 Load (mg/g polymer): 11.73 mg/g polymer
[10]; HEMA-PC:LM 1:2, crosslinker 0.5 mole %
  Vitamin B12 Load (mg/g polymer): 10.68 mg/g polymer
[10]; HEMA-PC:LM 1:2, crosslinker 1 mole %
  Vitamin B12 Load (mg/g polymer): 11.4 mg/g polymer
[10]; HEMA-PC:LM 1:2, crosslinker 2 mole %
  Vitamin B12 Load (mg/g polymer): 4.66 mg/g polymer
[10]; HEMA-PC:LM 1:2, crosslinker 5 mole %
  Vitamin B12 Load (mg/g polymer): 1.96 mg/g polymer
[10]; HEMA-PC:LM 1:2, crosslinker 10 mole %
  Vitamin B12 Load (mg/g polymer): 0 mg/g polymer
[9]
  Loading (mg/g polymer): 40 mg/g polymer
